Patent US11033577B2, “Polymer conjugate of hexa-coordinated platinum complex” (priority 2015, dated 2021)

How the values were obtained:
Assay type in all cases: in vivo, BALB/cA-nu/nu mouse
Conditions in all cases: caudal vein
[1] = tested on: Human stomach cancer 4-1ST; test: Antitumor Test 1, human stomach cancer 4-1ST transplanted mouse
Description: (§1) Human stomach cancer 4-1ST was subcultured subcutaneously in a BALB/cA-nu/nu mouse (hereinafter, nude mouse). Human stomach cancer 4-1ST was obtained from the Central Institute for Experimental Animals.
Human stomach cancer 4-1ST was collected subcutaneously from a nude mouse and was finely cut into blocks each measuring about 3 mm on each side. The tumor blocks thus obtained were subcutaneously transplanted into the dorsal side of nude mice using a trocar. On the 15th day after transplantation, where the average tumor volume had reached about 100 to 200 mm^3, various drugs were administered through the caudal vein. The use and dose (in terms of drug) of the various administered drugs are as follows. In regard to the Example 1 compound, the compound was dissolved in a 5% glucose injectable solution, and the solution was administered once at a dose of 25 mg/kg or 12.5 mg/kg. In regard to the Example 2 compound, the compound was dissolved in a 5% glucose injectable solution, and the solution was administered once at a dose of 25 mg/kg or 12.5 mg/kg. In regard to the Example 3 compound, the compound was dissolved in a 5% glucose injectable solution, and the solution was administered once at a dose of 20 mg/kg or 10 mg/kg. In regard to the Example 4 compound, the compound was dissolved in a 5% glucose injectable solution, and the solution was administered once at a dose of 20 mg/kg or 10 mg/kg. In regard to the Example 5 compound, the compound was dissolved in a 5% glucose injectable solution, and the solution was administered once at a dose of 20 mg/kg or 10 mg/kg. As a control drug, l-OHP was administered once at a dose of 20 mg/kg, and cisplatin was administered once at a dose of 10 mg/kg. Regarding the amounts of administration of l-OHP and cisplatin and the high amounts of administration of the various Example compounds, the maximum tolerable doses (MTD doses) were employed for all of the compounds. After the administration, the major axis (L) and the minor axis (W) of the tumor were measured over time using calipers, and the tumor volume (L×W×W×0.5) was calculated. The test was performed by employing four animals per group for all of a non-administered group as well as various drug-administered groups. During the period from the initiation of administration to the 21st day after administration, the relative tumor volume (T/C (%)) of each drug-administered group based on the relative tumor volume of a non-drug-administered group as 100 was calculated by the following formula as an index for the antitumor effect. T/C(%)=Relative tumor volume of administered group/relative tumor volume of non-administered group×100 Formula: […]

[2] = tested on: Human stomach cancer 4-1ST; test: Antitumor Test 2, human stomach cancer 4-1ST transplanted mouse
Description: as §1
(§2) Human stomach cancer 4-1ST was collected subcutaneously from a nude mouse and was cut into blocks each measuring about 3 mm on each side. The tumor blocks thus obtained were transplanted subcutaneously on the dorsal side of nude mice using a trocar. On the 17th day after transplantation, where the average tumor volume had reached about 100 to 200 mm^3, various drugs were administered through the caudal vein. The use and dose (in terms of drug) of the various administered drugs are as follows. In regard to the Example 11 compound, the compound was dissolved in a 5% glucose injectable solution, and the solution was administered once at a dose of 15 mg/kg or 7.5 mg/kg. In regard to the Example 12 compound, the compound was dissolved in a 5% glucose injectable solution, and the solution was administered once at a dose of 30 mg/kg or 15 mg/kg. As a control drug, l-OHP was administered once at a dose of 18 mg/kg, and cisplatin was administered once at a dose of 10 mg/kg. Regarding the amounts of administration of l-OHP and cisplatin and the high amounts of administration of the various Example compounds, the maximum tolerable doses (MTD doses) were employed for all of the compounds. After the administration, the major axis (L) and the minor axis (W) of the tumor were measured over time using calipers, and the tumor volume (L×W×W×0.5) was calculated. The test was performed by employing four animals per group for all of a non-administered group as well as various drug-administered groups. During the period from the initiation of administration to the 21st day after administration, the relative tumor volume (T/C (%)) of each drug-administered group based on the relative tumor volume of a non-drug-administered group as 100 was calculated by the following formula as an index for the antitumor effect. T/C(%)=Relative tumor volume of administered group/relative tumor volume of non-administered group×100 Formula: […]

[3] = tested on: Human stomach cancer 4-1ST; test: Antitumor Test 3, human stomach cancer 4-1ST transplanted mouse
Description: as §1
as §2, with “20th” for “17th”, “7” for “11”, “16” for “12”, “18 mg/kg or 9” for “18”

## O=C1[O][Pt]2([NH][C@@H]3CCCC[C@H]3[NH]2)[O]C1=O [l-OHP, oxaliplatin]
[1]; 20 mg/kg once, day 0
  T/C (%) in various numbers of days after administration: 100%
[1]; 20 mg/kg once, day 3
  T/C (%) in various numbers of days after administration: 72%
[1]; 20 mg/kg once, day 5
  T/C (%) in various numbers of days after administration: 57%
[1]; 20 mg/kg once, day 7
  T/C (%) in various numbers of days after administration: 49%
[1]; 20 mg/kg once, day 10
  T/C (%) in various numbers of days after administration: 49%
[1]; 20 mg/kg once, day 14
  T/C (%) in various numbers of days after administration: 45%
[1]; 20 mg/kg once, day 17
  T/C (%) in various numbers of days after administration: 46%
[1]; 20 mg/kg once, day 21
  T/C (%) in various numbers of days after administration: 41%
[2]; 18 mg/kg once, day 0
  T/C (%) in various numbers of days after administration: 100%
[2]; 18 mg/kg once, day 4
  T/C (%) in various numbers of days after administration: 84%
[2]; 18 mg/kg once, day 7
  T/C (%) in various numbers of days after administration: 52%
[2]; 18 mg/kg once, day 11
  T/C (%) in various numbers of days after administration: 50%
[2]; 18 mg/kg once, day 14
  T/C (%) in various numbers of days after administration: 50%
[2]; 18 mg/kg once, day 18
  T/C (%) in various numbers of days after administration: 60%
[2]; 18 mg/kg once, day 21
  T/C (%) in various numbers of days after administration: 57%
[3]; 9 mg/kg once, day 0
  T/C (%) in various numbers of days after administration: 100%
[3]; 9 mg/kg once, day 4
  T/C (%) in various numbers of days after administration: 81%
[3]; 9 mg/kg once, day 7
  T/C (%) in various numbers of days after administration: 74%
[3]; 9 mg/kg once, day 11
  T/C (%) in various numbers of days after administration: 75%
[3]; 9 mg/kg once, day 14
  T/C (%) in various numbers of days after administration: 79%
[3]; 9 mg/kg once, day 18
  T/C (%) in various numbers of days after administration: 77%
[3]; 9 mg/kg once, day 21
  T/C (%) in various numbers of days after administration: 87%
[3]; 18 mg/kg once, day 0
  T/C (%) in various numbers of days after administration: 100%
[3]; 18 mg/kg once, day 4
  T/C (%) in various numbers of days after administration: 60%
[3]; 18 mg/kg once, day 7
  T/C (%) in various numbers of days after administration: 37%
[3]; 18 mg/kg once, day 11
  T/C (%) in various numbers of days after administration: 36%
[3]; 18 mg/kg once, day 14
  T/C (%) in various numbers of days after administration: 47%
[3]; 18 mg/kg once, day 18
  T/C (%) in various numbers of days after administration: 50%
[3]; 18 mg/kg once, day 21
  T/C (%) in various numbers of days after administration: 52%

## N.N.[Cl][Pt][Cl] [Cisplatin, cisplatin]
[1]; 10 mg/kg once, day 0
  T/C (%) in various numbers of days after administration: 100%
[1]; 10 mg/kg once, day 3
  T/C (%) in various numbers of days after administration: 68%
[1]; 10 mg/kg once, day 5
  T/C (%) in various numbers of days after administration: 50%
[1]; 10 mg/kg once, day 7
  T/C (%) in various numbers of days after administration: 33%
[1]; 10 mg/kg once, day 10
  T/C (%) in various numbers of days after administration: 33%
[1]; 10 mg/kg once, day 14
  T/C (%) in various numbers of days after administration: 29%
[1]; 10 mg/kg once, day 17
  T/C (%) in various numbers of days after administration: 26%
[1]; 10 mg/kg once, day 21
  T/C (%) in various numbers of days after administration: 22%
[2]; 10 mg/kg once, day 0
  T/C (%) in various numbers of days after administration: 100%
[2]; 10 mg/kg once, day 4
  T/C (%) in various numbers of days after administration: 77%
[2]; 10 mg/kg once, day 7
  T/C (%) in various numbers of days after administration: 43%
[2]; 10 mg/kg once, day 11
  T/C (%) in various numbers of days after administration: 32%
[2]; 10 mg/kg once, day 14
  T/C (%) in various numbers of days after administration: 36%
[2]; 10 mg/kg once, day 18
  T/C (%) in various numbers of days after administration: 37%
[2]; 10 mg/kg once, day 21
  T/C (%) in various numbers of days after administration: 42%
[3]; 10 mg/kg once, day 0
  T/C (%) in various numbers of days after administration: 100%
[3]; 10 mg/kg once, day 4
  T/C (%) in various numbers of days after administration: 47%
[3]; 10 mg/kg once, day 7
  T/C (%) in various numbers of days after administration: 22%
[3]; 10 mg/kg once, day 11
  T/C (%) in various numbers of days after administration: 17%
[3]; 10 mg/kg once, day 14
  T/C (%) in various numbers of days after administration: 16%
[3]; 10 mg/kg once, day 18
  T/C (%) in various numbers of days after administration: 20%
[3]; 10 mg/kg once, day 21
  T/C (%) in various numbers of days after administration: 19%
